Patent publication US12263171B2, “7-, 8-, and 10-substituted amino triazolo quinazoline derivatives as adenosine receptor antagonists, pharmaceutical compositions and their use” (Merck Sharp & Dohme LLC, priority 2018, dated 2025)

Key:
[1] = target: human A2b adenosine receptor (Homo sapiens (Human), UniProt P29275); experiment: A2b radioligand filtration binding assay (tritiated proprietary A2b antagonist, HEK293 membranes); conditions: for IC50: unstarred values: radioligand binding; for A2B binding % inh. @ 10000 nM: unstarred
Outline: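 Displacement of a tritiated proprietary A2b antagonist from membranes of HEK293 cells recombinantly expressing human A2b receptor, measured by filtration and scintillation counting. Percent effect was normalized to total and non-specific binding and fitted with a 4-parameter logistic to give IC50.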

[2] = target: human A2a adenosine receptor (Homo sapiens (Human), UniProt P29274); experiment: A2a receptor affinity radioligand binding assay ([3H] SCH58261, membranes from HEK293 or CHO cells); conditions: unstarred values: radioligand binding
Outline: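 Displacement of tritiated SCH58261 (working dilution 4 nM) from recombinant human A2a receptor membranes (HEK293 or CHO), 60 min at room temperature in Tris pH 7.4/MgCl2 buffer after 15–30 min compound preincubation. Scintillation counting after filtration; normalized percent effect fitted 4-parameter logistic for IC50.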

Sequence of human A2b adenosine receptor (P29275 whole entry): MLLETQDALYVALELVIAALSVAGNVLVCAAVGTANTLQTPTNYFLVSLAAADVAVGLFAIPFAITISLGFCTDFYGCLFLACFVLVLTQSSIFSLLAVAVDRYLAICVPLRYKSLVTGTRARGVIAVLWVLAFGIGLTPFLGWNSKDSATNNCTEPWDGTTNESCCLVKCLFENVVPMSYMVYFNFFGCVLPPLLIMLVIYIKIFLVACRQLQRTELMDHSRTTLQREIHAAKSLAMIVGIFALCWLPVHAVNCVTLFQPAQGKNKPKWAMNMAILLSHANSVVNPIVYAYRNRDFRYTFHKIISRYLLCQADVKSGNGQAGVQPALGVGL
Sequence of human A2a adenosine receptor (P29274 whole entry): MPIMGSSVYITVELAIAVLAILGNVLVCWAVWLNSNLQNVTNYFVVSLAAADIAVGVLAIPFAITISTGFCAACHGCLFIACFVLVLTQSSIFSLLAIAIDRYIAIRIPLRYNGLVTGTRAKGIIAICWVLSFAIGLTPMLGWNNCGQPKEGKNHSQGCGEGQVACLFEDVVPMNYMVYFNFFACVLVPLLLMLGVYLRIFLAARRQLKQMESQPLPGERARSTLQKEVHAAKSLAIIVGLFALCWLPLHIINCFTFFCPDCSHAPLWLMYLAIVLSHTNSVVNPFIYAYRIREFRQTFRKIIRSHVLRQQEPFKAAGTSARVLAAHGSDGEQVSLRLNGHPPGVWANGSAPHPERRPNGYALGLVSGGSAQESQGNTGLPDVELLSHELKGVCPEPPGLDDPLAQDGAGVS

| Structure (SMILES) | IC50 [1] [nM] | IC50 [2] [nM] | A2B binding % inh. @ 10000 nM [1] [% inh. @ 10000 nM] |
| --- | --- | --- | --- |
| COc1ccc2c(c1)nc(N)n1nc([C@@H]3CCCN(c4cn(CC(C)(C)O)nc4C)C3)nc21 [Example 180, (R)-1-(4-(3-(5-amino-8-methoxy-[1,2,4]triazolo[1,5-c]quinazolin-2-yl)piperidin-1-yl)-3-methyl-1H-pyrazol-1-yl)-2-methylpropan-2-ol] | 250 | 1 | – |
| COc1ccc2c(c1)nc(N)n1nc([C@@H]3CCCN(c4cn([C@H](C)C(C)(C)O)nc4C)C3)nc21 [Example 186A] | 462 | 0.4 | – |
| COc1ccc2c(c1)nc(N)n1nc([C@@H]3CCCN(c4cn([C@@H](C)C(C)(C)O)nc4C)C3)nc21 [Example 186B, (S)-3-(4-((R)-3-(5-amino-8-methoxy-[1,2,4]triazolo[1,5-c]quinazolin-2-yl)piperidin-1-yl)-3-methyl-1H-pyrazol-1-yl)-2-methylbutan-2-ol] | 323 | 0.4 | – |
| COc1ccc2c(c1)nc(N)n1nc([C@@H]3CCCN(c4cnc(OC(F)F)c(C)c4)C3)nc21 [Example 190, (R)-2-(1-(6-(difluoromethoxy)-5-methylpyridin-3-yl)piperidin-3-yl)-8-methoxy-[1,2,4]triazolo[1,5-c]quinazolin-5-amine] | 480 | 10.1 | – |
| COc1ccc2c(c1)nc(N)n1nc([C@@H]3CCCN(c4ncn(CC(C)(C)O)n4)C3)nc21 [Example 194, (R)-1-(3-(3-(5-amino-8-methoxy-[1,2,4]triazolo[1,5-c]quinazolin-2-yl)piperidin-1-yl)-1H-1,2,4-triazol-1-yl)-2-methylpropan-2-ol] | 528 | 6.7 | – |
| COc1ccc2c(c1)nc(N)n1nc([C@H]3C[C@@H](C)CN(c4cnn(CC(C)(C)O)c4)C3)nc21 [Example 195A] | 5810 | 35.9 | – |
| COc1ccc2c(c1)nc(N)n1nc([C@@H]3C[C@@H](C)CN(c4cnn(CC(C)(C)O)c4)C3)nc21 [Example 195B] | 9690 | 1.7 | – |
| COc1ccc2c(c1)nc(N)n1nc([C@H]3C[C@H](C)CN(c4cnn(CC(C)(C)O)c4)C3)nc21 [Example 195C] | 9440 | 281 | – |
| COc1ccc2c(c1)nc(N)n1nc([C@H]3C[C@@H](F)CN(c4cnn(CC(C)(C)O)c4)C3)nc21 [Example 196A] | 802 | 2.9 | – |
| COc1ccc2c(c1)nc(N)n1nc([C@H]3C[C@@H](F)CN(c4cn(CC(C)(C)O)nc4C)C3)nc21 [Example 197A, 1-(4-((3S,5R)-3-(5-amino-8-methoxy-[1,2,4]triazolo[1,5-c]quinazolin-2-yl)-5-fluoropiperidin-1-yl)-3-methyl-1H-pyrazol-1-yl)-2-methylpropan-2-ol] | – | 99 | 31 |
| COc1ccc2c(c1)nc(N)n1nc([C@@H]3C[C@H](F)CN(c4cn(CC(C)(C)O)nc4C)C3)nc21 [Example 197B, 1-(4-((3R,5S)-3-(5-amino-8-methoxy-[1,2,4]triazolo[1,5-c]quinazolin-2-yl)-5-fluoropiperidin-1-yl)-3-methyl-1H-pyrazol-1-yl)-2-methylpropan-2-ol] | 1370 | 0.4 | – |
| C[C@H]1CC[C@@H](c2nc3c4ccc(C(F)F)cc4nc(N)n3n2)CN1c1cnn(CC(C)(C)O)c1 [Example 201, 1-(4-((2S,5R)-5-(5-amino-8-(difluoromethyl)-[1,2,4]triazolo[1,5-c]quinazolin-2-yl)-2-methylpiperidin-1-yl)-1H-pyrazol-1-yl)-2-methylpropan-2-ol] | 10.6 | 2.8 | – |
| C[C@H]1CC[C@@H](c2nc3c4ccc(C#N)cc4nc(N)n3n2)CN1c1cnn(CC(C)(C)O)c1 [Example 202, 5-amino-2-((3R,6S)-1-(1-(2-hydroxy-2-methylpropyl)-1H-pyrazol-4-yl)-6-methylpiperidin-3-yl)-[1,2,4]triazolo[1,5-c]quinazoline-8-carbonitrile] | 211 | 4.2 | – |
| C[C@H]1CC[C@@H](c2nc3c4ccc(Cl)cc4nc(N)n3n2)CN1c1cnn(CC(C)(C)O)c1 [Example 203, 1-(4-((2S,5R)-5-(5-amino-8-chloro-[1,2,4]triazolo[1,5-c]quinazolin-2-yl)-2-methylpiperidin-1-yl)-1H-pyrazol-1-yl)-2-methylpropan-2-ol] | 1.7 | 0.7 | – |
| COc1ccc2c(c1)nc(N)n1nc([C@@H]3CC[C@H](C)N(c4cnn(CC(C)(C)O)c4)C3)nc21 [Example 204, 1-(4-((2S,5R)-5-(5-amino-8-methoxy-[1,2,4]triazolo[1,5-c]quinazolin-2-yl)-2-methylpiperidin-1-yl)-1H-pyrazol-1-yl)-2-methylpropan-2-ol] | 1.1 | 0.4 | – |

The remaining lines, values ahead:

| IC50 [1] [nM] | IC50 [2] [nM] | A2B binding % inh. @ 10000 nM [1] [% inh. @ 10000 nM] | Structure (SMILES) |
| --- | --- | --- | --- |
| 2.5 | 2.1 | – | COc1ccc2c(c1)nc(N)n1nc([C@@H]3CCCN(c4cnn(CC(F)(F)F)c4)C3)nc21 [Example 178, (R)-8-methoxy-2-(1-(1-(2,2,2-trifluoroethyl)-1H-pyrazol-4-yl)piperidin-3-yl)-[1,2,4]triazolo[1,5-c]quinazolin-5-amine] |
| 103 | 3.5 | – | COc1ccc2c(c1)nc(N)n1nc([C@@H]3CCCN(c4cnn(CC(C)(C)O)c4)C3)nc21 [Example 179, (R)-1-(4-(3-(5-amino-8-methoxy-[1,2,4]triazolo[1,5-c]quinazolin-2-yl)piperidin-1-yl)-1H-pyrazol-1-yl)-2-methylpropan-2-ol] |
| 104 | 0.3 | – | COc1ccc2c(c1)nc(N)n1nc([C@@H]3CCCN(c4cnn(CC(C)(C)O)c4C)C3)nc21 [Example 181, (R)-1-(4-(3-(5-amino-8-methoxy-[1,2,4]triazolo[1,5-c]quinazolin-2-yl)piperidin-1-yl)-5-methyl-1H-pyrazol-1-yl)-2-methylpropan-2-ol] |
| 188 | 1.3 | – | COc1ccc2c(c1)nc(N)n1nc([C@@H]3CCCN(c4cnn([C@H]5C[C@@](C)(O)C5)c4)C3)nc21 [Example 182, (1S,3s)-3-(4-((R)-3-(5-amino-8-methoxy-[1,2,4]-triazolo[1,5-c]quinazolin-2-yl)piperidin-1-yl)-1H-pyrazol-1-yl)-1-methylcyclobutan-1-ol] |
| 4070 | 157 | – | COc1ccc2c(c1)nc(N)n1nc([C@@H]3CCCN(c4cnn(CC5(CF)COC5)c4)C3)nc21 [Example 183, (R)-2-(1-(1-((3-(fluoromethyl)oxetan-3-yl)methyl)-1H-pyrazol-4-yl)piperidin-3-yl)-8-methoxy-[1,2,4]triazolo[1,5-c]quinazolin-5-amine] |
| 98.1 | 0.8 | – | COc1ccc2c(c1)nc(N)n1nc([C@@H]3CCCN(c4cnn([C@H](C)C(C)(C)O)c4)C3)nc21 [Example 185A] |
| 116 | 1 | – | COc1ccc2c(c1)nc(N)n1nc([C@@H]3CCCN(c4cnn([C@@H](C)C(C)(C)O)c4)C3)nc21 [Example 185B, (S)-3-(4-((R)-3-(5-amino-8-methoxy-[1,2,4]triazolo[1,5-c]quinazolin-2-yl)piperidin-1-yl)-1H-pyrazol-1-yl)-2-methylbutan-2-ol] |
| 1290 | 2.8 | – | COc1ccc2c(c1)nc(N)n1nc([C@@H]3CCCN(c4cnn([C@@H]5CCC[C@H]5O)c4)C3)nc21 [Example 187A, (1R,2R)-2-(4-((R)-3-(5-amino-8-methoxy-[1,2,4]triazolo[1,5-c]quinazolin-2-yl)piperidin-1-yl)-1H-pyrazol-1-yl)cyclopentan-1-ol] |
| – | 406 | 16 | COc1ccc2c(c1)nc(N)n1nc([C@@H]3CCCN(c4cnn([C@H]5CCC[C@@H]5O)c4)C3)nc21 [Example 187B, (1S,2S)-2-(4-((R)-3-(5-amino-8-methoxy-[1,2,4]triazolo[1,5-c]quinazolin-2-yl)piperidin-1-yl)-1H-pyrazol-1-yl)cyclopentan-1-ol] |
| 44.6 | 0.7 | – | COc1ccc2c(c1)nc(N)n1nc([C@@H]3CCCN(c4cnn(C(C)(C)CO)c4)C3)nc21 [Example 188, (R)-2-(4-(3-(5-amino-8-methoxy[1,2,4]triazolo[1,5-c]quinazolin-2-yl)piperidin-1-yl)-1H-pyrazol-1-yl)-2-methylpropan-1-ol] |
| 228 | 0.6 | – | COc1ccc2c(c1)nc(N)n1nc([C@@H]3CCCN(c4cnn([C@H](C)C(C)(C)O)c4C)C3)nc21 [Example 189A, (R)-3-(4-((R)-3-(5-amino-8-methoxy[1,2,4]triazolo[1,5-c]quinazolin-2-yl)piperidin-1-yl)-5-methyl-1H-pyrazol-1-yl)-2-methylbutan-2-ol] |
| 291 | 0.7 | – | COc1ccc2c(c1)nc(N)n1nc([C@@H]3CCCN(c4cnn([C@@H](C)C(C)(C)O)c4C)C3)nc21 [Example 189B, (S)-3-(4-((R)-3-(5-amino-8-methoxy-[1,2,4]triazolo[1,5-c]quinazolin-2-yl)piperidin-1-yl)-5-methyl-1H-pyrazol-1-yl)-2-methylbutan-2-ol] |
| 18.4 | 2.5 | – | COc1ccc2c(c1)nc(N)n1nc([C@@H]3CCCN(c4ccc(OC(F)F)nc4)C3)nc21 [Example 191, (R)-2-(-(6-(difluoromethoxy)pyridin-3-yl)piperidin-3-yl)-8-methoxy-[1,2,4]triazolo[1,5-c]quinazolin-5-amine] |
| 22.7 | 2.5 | – | COc1ccc2c(c1)nc(N)n1nc([C@@H]3CCCN(c4ccc(OC(C)C)nc4)C3)nc21 [Example 192, (R)-2-(1-(6-isopropoxypyridin-3-yl)piperidin-3-yl)-8-methoxy-[1,2,4]triazolo[1,5-c]quinazolin-5-amine] |
| 130 | 2.2 | – | COc1ccc2c(c1)nc(N)n1nc([C@@H]3CCCN(c4ccc(C(C)=O)cc4)C3)nc21 [Example 193, (R)-1-(4-(3-(5-amino-8-methoxy-[1,2,4]-triazolo[1,5-c]quinazolin-2-yl)piperidin-1-yl)phenyl)ethan-1-one] |
